Earlier results in patent publication US20110118134A1, “Biomarkers for insulin sensitizer drug response” (IKFE GmbH, priority 2008, published 2011).

Tested on: MIF
Conditions: six week treatment, eight non-diabetic patients with obesity

Structure (SMILES): CN(C)C(=N)N=C(N)N [metformin]
- Plasma concentration of MIF and transcription of MIF mRNA in mononuclear cells: could be reduced
